Assay results as given in patent US20250121024A1, “COMBINED USE OF IMIQUIMOD AND A CASEIN HYDROLYSATE FOR THE TREATMENT OF CONDYLOMA” (NTD LABS, S.L.U., priority 2021, published 2025).

Test system: condyloma
Assay: Controlled, observational clinical trials of topical 5% imiquimod, oral casein hydrolysate and their combination in patients suffering from condyloma
Assay type: in vivo, human
Conditions: for Total resolution rate of condyloma (%): percentage of patients with total resolution
Method: The efficacy of the combination of imiquimod and a casein hydrolysate, according to the characteristics defined in the present invention, for the treatment of patients with condyloma was evaluated. Specifically, it was evaluated whether oral supplementation with the casein hydrolysate in patients treated with topical 5% imiquimod produced an improvement in treatment efficacy (rate of complete resolution of condyloma) and/or reduced recurrences (rate of recurrences) after the treatment.
A controlled, observational clinical trial was carried out, which included 44 female patients suffering from condyloma, who were divided into two groups: • Imiquimod group (I) (24 patients): treated with 5% imiquimod cream (3 times per week for up to 16 weeks). • Imiquimod+casein hydrolysate group (I+C) (20 patients): treated with 5% imiquimod cream (3 times per week for up to 16 weeks) plus oral casein hydrolysate (6 g once per day, for 6 months).
Likewise, a controlled, observational clinical trial was carried out with 20 patients suffering from condyloma (Group casein hydrolysate (C)) who were treated only with oral casein hydrolysate for 6 months (6 grams, once per day).
A commercially available casein hydrolysate (HuPaVir®) and a commercially available 5% imiquimod cream (Aldara® 5% cream) were used in the study.
In particular, the evaluation of patients at 4, 8, 12 and 16 weeks after starting treatment is included, as well as after 6 months (for group C some points are not available), wherein the percentage of patients with total resolution of condyloma during treatment (up to 16 weeks) and the recurrence rate 6 months after starting the treatment is reported.

## CC(C)Cn1cnc2c(N)nc3ccccc3c21 [I, 1-(2-methylpropyl)-1H-imidazo[4,5-c]quinoline-4-amine]
4 weeks after starting treatment
  Total resolution rate of condyloma (%): 8.33%
6 months after starting the treatment
  Recurrence rate (%): 14.3%
8 weeks after starting treatment
  Total resolution rate of condyloma (%): 28.57%
12 weeks after starting treatment
  Total resolution rate of condyloma (%): 58.33%
12 weeks after starting treatment, listed as imiquimod
  Total resolution rate of condyloma (%): 58%
16 weeks after starting treatment
  Total resolution rate of condyloma (%): 72.72%
